Converted amounts (≈) assume the structure as drawn.

The experiment has as its system Helicobacter pylori. The experiment can be described thus: Antibacterial activity against Helicobacter pylori assessed as bacterial colonies formation incubated for 24 hrs measured after up to 5 days culturing time by CFU counting analysis. The experiment is classed as functional.

`COc1cc(OC)c2c(c1)[C@@H](CCCCC[C@H]1CCC[C@]3(CC[C@@H](C)O3)O1)OC2=O`: the MBC was 1 µg/mL (≈ 2.39 µM) and the MIC turned out to be 2 µg/mL (≈ 4.78 µM).
In the same order, the values of `COc1cc(OC)c2c(c1)[C@@H](CCCCCCCC[C@H]1CCC[C@]3(CC[C@H](C)O3)O1)OC2=O` are 3 µg/mL (≈ 6.51 µM) and 3 µg/mL (≈ 6.51 µM).
Take `COc1cc(OC)c2c(c1)N(CCCCC[C@H]1CCC[C@]3(CC[C@H](C)O3)O1)C(=O)C2`: the minimum bactericidal concentration (MBC) turned out to be 12.5 µg/mL (≈ 29.9 µM) and the MIC was 12.5 µg/mL (≈ 29.9 µM).
Take `COc1cc(OC)c2ccn(CCCCCCCC[C@H]3CCC[C@]4(CC[C@H](C)O4)O3)c2c1`: the MBC is above 100 µg/mL and the MIC is above 100 µg/mL.
As for `COc1cc(OC)c2c(c1)N(CCCCCCCC[C@H]1CCC[C@]3(CC[C@H](C)O3)O1)C(=O)C2`, the MBC turned out to be 16 µg/mL (≈ 34.8 µM) and the MIC worked out at 16 µg/mL (≈ 34.8 µM).
Consider `COc1cc(OC)c2c(c1)N(CCCC[C@H]1CCC[C@]3(CC[C@H](C)O3)O1)C(=O)C2`, for which the minimal bactericidal concentration (MBC) came out at 12.5 µg/mL (≈ 31 µM) and the MIC is 12.5 µg/mL (≈ 31 µM).
For the compound `COc1cc(OC)c2ccn(CCCC[C@H]3CCC[C@]4(CC[C@H](C)O4)O3)c2c1`, the MBC was 3 µg/mL (≈ 7.74 µM) and the MIC was 3 µg/mL (≈ 7.74 µM).
Consider `COc1cc(OC)c2ccn(CCCCC[C@H]3CCC[C@]4(CC[C@H](C)O4)O3)c2c1`, for which the MBC turned out to be 8.3 µg/mL (≈ 20.7 µM) and the MIC stood at 8.3 µg/mL (≈ 20.7 µM).
For `COc1cc(OC)c2c(c1)[C@@H](CCCC[C@H]1CCC[C@]3(CC[C@H](C)O3)O1)OC2=O`, the MBC was found to be 12.5 µg/mL (≈ 30.9 µM) and the minimal inhibitory concentration (MIC) is 12.5 µg/mL (≈ 30.9 µM).

Values taken from ChEMBL document CHEMBL3217556, “Synthesis and anti-Helicobacter pylori activity of analogues of spirolaxine methyl ether” (2012).
